The results in this text go back to patent US5650411A, “Substituted azolone derivatives” (Janssen Pharmaceutica N.V., priority 1993, dated 1997).

Molecules are shown by their SMILES. In brackets after ≈: the same amount, converted by molar mass.

In this test the test system is Helicobacter pylori. The test can be described thus: Minimal inhibitory concentration (MIC) against Helicobacter pylori, urease read-out, 5 clinical strains. Type of test: cell-based. Particulars: 5 H. pylori clinical strains, 10% blood agar, 48 h at 37° C., microaerophilic, read-out: MIC. Here is the method: The anti-Helicobacter activity of the subject compounds was assessed by the following in-vitro test procedure.
The activity of test compounds against Helicobacter pylori was determined against a standard set of 5 H. priori strains obtained from clinical material. Minimal inhibitory concentrations (MICs) were determined by measuring the activity of H. pylori urease after treatment of growing cultures of the bacteria with the antimicrobial agents.
The test compounds were dissolved in DMSO at a concentration of 10^-3 M. A dilution to 10^-4 M in DMSO was also prepared. 10 μl volumes of these solutions were pipetted in the wells of Repli-Dishes (®Sterilin). Wells containing DMSO alone were included as controls in each Repli-Dish. Ampicillin ((+)-6-[(2-amino-2-phenylacetyl)amino]-3,3-dimethyl-7-oxo-4-thia-1-azabicyclo[3.2.0]heptane-2-carboxylic acid trihydrate) and metronidazole (2-methyl-5-nitro-1H-imidazol-1-ethanol) were included as reference compounds in each batch of tests. (These compounds were tested at final concentrations of 10^-5, 10^-6, 10^-7 and 10^-8 M). Test plates were stored at 4° C. until used. The five isolates of H. pylori were maintained by subculture on 10% blood agar every 2 or 3 days. The bacteria were grown at 37° C. under an atmosphere containing 5% oxygen, 10% CO2 and 85% nitrogen. Suspensions of Helicobacter pylori for inoculum were prepared in Brain-heart infusion broth and adjusted to an absorbance of 1.5±0.3 at […].
Freshly prepared 10% blood agar held at 45° C. was added in 1 ml volumes to the wells of the test plates, thus diluting the test compounds to 10^-5 and 10^-6 M. The medium was allowed to cool, then 10 μl volumes of bacterial suspension were pipetted on the agar surface. The plates were incubated for 48 h at 37° C. under the microaerophilic atmosphere described above. […] After the 48 h of incubation, 1 ml volumes of urease broth were gently added to each Repli-Dish well and the plates were incubated at 37° C. for 2 h. 100 μl samples of fluid from each well were then pipetted into the wells of 96-place microdilution plates. A purple colour was interpreted as growth, yellow-orange as no growth of H. pylori. By this means a clear end-point was obtained, from which the inhibitory effects could be determined.
Table 1 summarizes the MIC values determined by the above procedure for a subset of the subject compounds.
On to `CC(C(O)c1ccc(Cl)cc1)n1ccn(-c2ccc(N3CCN(c4ccc(O)cc4)CC3)cc2)c1=O` (centres unmarked) [compound 12, 1-[2-(4-chlorophenyl)-2-hydroxy-1-methylethyl]-1,3-dihydro-3-[4-[4-(4-hydroxy-phenyl)-1-piperazinyl]phenyl]-2H-imidazol-2-one], for which the minimal inhibitory concentration (MIC) (in general, the least concentration at which growth counts as inhibited) turned out to be 0.1 µM (≈ 0.0505 µg/mL).

For the molecule `CCC(C(=O)c1ccc(Cl)cc1)n1ncn(-c2ccc(N3CCN(c4ccc(OC)nc4)CC3)cc2)c1=O` (racemic) [compound 6, (±)-2-[1-(4-chlorobenzoyl)propyl]-2,4-dihydro-4-[4-[4-(6-methoxy-3-pyridinyl)-1-piperazinyl]phenyl]-3H-1,2,4-triazol-3-one], the MIC was 0.1 µM (≈ 0.0533 µg/mL).

For the molecule `CCC(C(=O)c1ccc(Cl)cc1)n1ncn(-c2ccc(N3CCC(c4cccc(OC)c4)CC3)nc2)c1=O` (racemic) [compound 7, (±)-2-[1-(4-chlorobenzoyl)propyl]-2,4-dihydro-4-[6-[4-(3-methoxyphenyl)-1-piperidinyl]-3-pyridinyl]-3H-1,2,4-triazol-3-one], the MIC was 0.1 µM (≈ 0.0532 µg/mL). Take `Cc1cn(C(C)C(=O)c2ccc(Cl)cc2)c(=O)n1-c1ccc(N2CCN(c3ccc(O)cc3)CC2)cc1` (centres unmarked) [compound 30, 1-[1-(4-chlorobenzoyl)ethyl]-1,3-dihydro-3-[4-[4-(4-hydroxyphenyl)-1-piperazinyl]phenyl]-4-methyl-2H-imidazol-2-one]: the MIC was determined as 1 µM (≈ 0.517 µg/mL). On to `CC[C@H]([C@H](O)c1ccc(Cl)cc1)n1ncn(-c2ccc(N3CCN(c4ccc(OC)cn4)CC3)cc2)c1=O` (relative stereo) [compound 15, (±)-(RR,SS)-2-[1-[(4-chlorophenyl)hydroxymethyl]propyl]-2,4-dihydro-4-[4-[4-(5-methoxy-2-pyridinyl)-1-piperazinyl]phenyl]-3H-1,2,4-triazol-3-one], for which the MIC was 0.1 µM (≈ 0.0535 µg/mL). `Cc1cc(N2CCN(c3ccc(-n4c(C)nn([C@H](C)[C@H](O)c5ccc(Cl)c(Cl)c5)c4=O)cc3)CC2)cc(C)c1O` (relative stereo) [compound 10, (±)-(R*,R*)-2-[2-(3,4-dichlorophenyl)-2-hydroxy-1-methylethyl]-2,4-dihydro-4-[4-[4-(4-hydroxy-3,5-dimethylphenyl)-1-piperazinyl]phenyl]-5-methyl-3H-1,2,4-triazol-3-one hemihydrate]: the minimal inhibitory concentration (MIC) is 1 µM.

With `CCC(C(=O)c1ccc(Cl)cc1)n1ncn(-c2ccc(N3CCN(c4ccc(OC)cc4)CC3)cc2)c1=O` (single isomer, unassigned; (+)) [compound 31, (+)-(A)-2-[1-(4-chlorobenzoyl)propyl]-2,4-dihydro-4-[4-[4-(4-methoxyphenyl)-1-piperazinyl]phenyl]-3H-1,2,4-triazol-3-one], the minimum inhibitory concentration (MIC) amounted to 1 µM (≈ 0.532 µg/mL).

Turning to `CCC(C(=O)c1ccc(Cl)cc1)n1ncn(-c2ccc(N3CCN(c4ccc(OC)cc4)CC3)cn2)c1=O` (racemic) [compound 2, (±)-2-[1-(4-chlorobenzoyl)propyl]-2,4-dihydro-4-[5-[4-(4-methoxyphenyl)-1-piperazinyl]-2-pyridinyl]-3H-1,2,4-triazol-3-one], the minimal inhibitory concentration (MIC) stood at 10 µM (≈ 5.33 µg/mL).

In the case of `CC[C@H]([C@H](O)c1ccc(Cl)cc1)n1ccn(-c2ccc(N3CCN(c4ccc(OC)cc4)CC3)nc2)c1=O` (relative stereo) [compound 38, (±)-(R*,R*)-1-[1-[(4-chlorophenyl)hydroxymethyl]propyl]-1,3-dihydro-3-[6-[4-(4-methoxyphenyl)-1-piperazinyl]-3-pyridinyl]-2H-imidazol-2-one], the MIC was 0.1 µM (≈ 0.0534 µg/mL). On to `CC[C@H]([C@H](O)c1ccc(Cl)cc1)n1ncn(-c2ccc(N3CCN(c4ccc(OC)c(OC)c4)CC3)nc2)c1=O` (relative stereo) [compound 49, (±)-(R*,R*)-2-[1-[(4-chlorophenyl)hydroxymethyl]propyl]-4-[6-[4-(3,4-dimethoxy-phenyl)-1-piperazinyl]-3-pyridinyl]-2,4-dihydro-3H-1,2,4-triazol-3-one], for which the MIC was 0.01 µM (≈ 0.00565 µg/mL). With `CC(C(O)c1ccc(Br)cc1)n1ccn(-c2ccc(N3CCN(c4ccc(O)cc4)CC3)cc2)c1=O` (centres unmarked) [compound 9, [A]+[B]-1-[2-(4-bromophenyl)-2-hydroxy-1-methylethyl]-1,3-dihydro-3-[4-[4-(4-hydroxyphenyl)-1-piperazinyl]phenyl]-2H-imidazol-2-one], the MIC amounted to 1 µM (≈ 0.549 µg/mL). Then `CC[C@H]([C@H](O)c1ccc(Cl)cc1)n1ncn(-c2ccc(N3CCN(c4ccccc4OC)CC3)nc2)c1=O` (relative stereo) [compound 17, (±)-(R*,R*)-2-[1-[(4-chlorophenyl)hydroxymethyl]propyl]-2,4-dihydro-4-[6-[4-(2-methoxyphenyl)-1-piperazinyl]-3-pyridinyl]-3H-1,2,4-triazol-3-one], with 0.1 µM (≈ 0.0535 µg/mL); and `CCC(C(=O)c1ccc(Cl)cc1)n1ncn(-c2ccc(N3CCN(c4ccc(OC)cn4)CC3)cc2)c1=O` (racemic) [compound 3, (±)-2-[1-(4-chlorobenzoyl)propyl]-2,4-dihydro-4-[4-[4-(5-methoxy-2-pyridinyl)-1-piperazinyl]phenyl]-3H-1,2,4-triazol-3-one], with 0.1 µM (≈ 0.0533 µg/mL); and `CC(C)(C(O)c1ccc(Br)cc1)n1ncn(-c2ccc(N3CCN(c4ccc(O)cc4)CC3)cc2)c1=O` (racemic) [compound 21, (±)-2-[2-(4-bromophenyl)-2-hydroxy-1,1-dimethylethyl]-2,4-dihydro-4-[4-[4-(4-hydroxyphenyl)-1-piperazinyl]phenyl]-3H-1,2,4-triazol-3-one], with 0.1 µM (≈ 0.0564 µg/mL).
